Assay results reported in ChEMBL document CHEMBL4311934, “Exploration of [2 + 2 + 2] cyclotrimerisation methodology to prepare tetrahydroisoquinoline-based compounds with potential aldo-keto reductase 1C3 target affinity” (Medchemcomm, 2019).

Assays:
[1] = target: T1, Aldo-keto reductase family 1 member C3 (Homo sapiens, UniProt P42330); assay: Inhibition of N-terminal GST-tagged recombinant human AKR1C3 expressed in Escherichia coli BL21 (DE) Codon Plus RP cells assessed as reduction in NADPH production using S-tetralol as substrate in presence of NADP+ by fluorimetry assay
T1 sequence (P42330 whole entry): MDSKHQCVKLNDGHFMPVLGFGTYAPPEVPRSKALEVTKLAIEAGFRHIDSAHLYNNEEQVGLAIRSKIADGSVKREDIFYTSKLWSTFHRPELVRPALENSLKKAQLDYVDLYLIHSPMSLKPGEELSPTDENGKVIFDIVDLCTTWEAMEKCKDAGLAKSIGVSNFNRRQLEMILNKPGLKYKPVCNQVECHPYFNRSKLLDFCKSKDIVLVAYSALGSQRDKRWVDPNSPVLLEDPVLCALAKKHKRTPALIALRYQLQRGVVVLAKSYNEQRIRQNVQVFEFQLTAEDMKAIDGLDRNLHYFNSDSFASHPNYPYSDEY

[2] = target: T2, Aldo-keto reductase family 1 member C2 (Homo sapiens, UniProt P52895); assay: Inhibition of N-terminal GST-tagged recombinant human AKR1C2 expressed in Escherichia coli BL21 (DE) Codon Plus RP cells assessed as reduction in NADPH production using S-tetralol as substrate in presence of NADP+ by fluorimetry assay
T2 sequence (P52895 whole entry): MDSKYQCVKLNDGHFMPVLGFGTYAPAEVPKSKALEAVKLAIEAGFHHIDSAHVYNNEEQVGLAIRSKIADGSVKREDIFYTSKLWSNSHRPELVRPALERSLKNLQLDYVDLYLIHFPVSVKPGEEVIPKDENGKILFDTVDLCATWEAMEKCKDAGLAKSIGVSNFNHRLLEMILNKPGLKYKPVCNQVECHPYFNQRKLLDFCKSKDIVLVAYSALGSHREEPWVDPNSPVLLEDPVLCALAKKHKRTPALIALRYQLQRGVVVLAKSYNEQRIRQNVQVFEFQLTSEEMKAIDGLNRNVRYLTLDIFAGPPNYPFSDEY

[3] = target: T3, Aldo-keto reductase family 1 member C3 (Homo sapiens) (UniProt P42330); assay: Inhibition of N-terminal GST-tagged recombinant human AKR1C3 expressed in Escherichia coli BL21 (DE) Codon Plus RP cells assessed as reduction in NADPH production at 50 uM using S-tetralol as substrate in presence of NADP+ by fluorimetry assay relative to control
T3 sequence (whole entry): T1 sequence (P42330 whole entry)

[4] = target: T4, Aldo-keto reductase family 1 member C2 (Homo sapiens) (UniProt P52895); assay: Inhibition of N-terminal GST-tagged recombinant human AKR1C2 expressed in Escherichia coli BL21 (DE) Codon Plus RP cells assessed as reduction in NADPH production 50 uM using S-tetralol as substrate in presence of NADP+ by fluorimetry assay relative to control
T4 sequence (whole entry): T2 sequence (P52895 whole entry)

[5] = organism: Homo sapiens; assay: Selectivity index, ratio of IC50 for N-terminal GST-tagged recombinant human AKR1C2 expressed in Escherichia coli BL21 (DE) Codon Plus RP cells to IC50 for N-terminal GST-tagged recombinant human AKR1C3 expressed in Escherichia coli BL21 (DE) Codon Plus RP cells

| inhibition [3] | inhibition [4] | SMILES | IC50 [1] | IC50 [2] | Ratio IC50 [5] |
| --- | --- | --- | --- | --- | --- |
|  |  | COc1ccc2cc3[n+](cc2c1OC)CCc1cc2c(cc1-3)OCO2 [BERBERINE] | 5.9 µM | 6.71 µM |  |
|  |  | O=C(O)c1cc2c(cc1C(=O)O)CN1C(=O)CCC1C2 (stereo unspecified) | 23.1 µM | 27.3 µM |  |
| 25% | 26.9% | O=C1CCC2Cc3cc(CO)c(CO)cc3CN12 (stereo unspecified) | > 50 µM | > 50 µM |  |
|  |  | CCOC(=O)c1cc2c(cc1C(=O)OCC)CN1C(=O)CCC1C2 (stereo unspecified) | 11.7 µM | 96.2 µM | 8 |
